Measured values as given in patent US6689811B2, “Method of using caffeic acid phenethyl ester and analogs thereof as radiation sensitizers” (Wake Forest University, priority 2001, dated 2004).

Key:
RKO cells = assay: Clonogenic survival assay with CAPE and ionizing radiation, RKO cells; assay type: cell-based
Description: (§1) FIGS. 2A-B are graphs illustrating that CAPE sensitizes colorectal carcinoma cells RKO (A) and HT-29 cells (B) to treatments with IR. RKO (A) and HT-29 (B) cells were treated with CAPE (5 μg/ml) for the indicated times, irradiated and plated for clonogenic survival assays. CAPE treatment alone induced 10-20% reduction in clonogenic survival. Results are normalized to account for this reduction. We have also tested the ability of CAPE to sensitize cells to the cytotoxic effects of ionizing radiation. […] The Dose-enhancement ratio (DER) values at survival fraction (SF) 0.1 for pretreatment with CAPE for 24 h were 1.81 for RKO cells and a 1.68 for HT-29 cells. The radiosensitizing effect of CAPE was even more pronounced in vivo.

[1] = test system: Akt phosphorylation (Akt-Pser473); assay: Akt phosphorylation immunoblot in PC-3 cells treated with CAPE; assay type: cell-based
Description: (§2) 35(9): p. 790; Giri, D. and M. Ittmann, Hum Pathol, 1999. 30(4): p. 419-24; Davies, M. A., et al., Cancer Res, 1999. 59(11): p. 2551-6). Since PTEN is mutated in PC-3 cells, Akt phosphorylation levels are elevated compared to normal prostatic cells, and therefore PC-3 cells are a good model to study the regulation of Akt by CAPE and propolis.

[2] = test system: Akt phosphorylation (Akt-Pser473); assay: Akt phosphorylation immunoblot in RKO cells treated with CAPE; assay type: cell-based
Description: RKO cells were treated with low serum (LS) (0.1%) for 12 h, or low serum for 12 h followed by replacement of media with 10% serum (LS+S), in the absence (EtOH) or presence of CAPE. Two different exposures (light, dark) of the immunoblot using the anti-phosphoAkt specific antibody are shown.
as §2
Since Akt phosphorylation levels reflect a balance between active phosphorylation (mainly by PI-3 kinase) and dephosphorylation (by a yet unidentified phosphatase), the decrease in Akt phosphorylation could be an activation of a phosphatase rather than inhibition of a kinase. […] Thus, we performed CAPE treatments in the presence of high (10%) and low (0.1%) serum levels.

HT-29 cells = assay: Clonogenic survival assay with CAPE and ionizing radiation, HT-29 cells; assay type: cell-based
Description: as §1

[3] = test system: colorectal carcinoma cells; assay: Survival fraction of colorectal carcinoma cells, oxaliplatin versus CAPE and oxaliplatin; assay type: cell-based; settings: regimen of CAPE and oxaliplatin compared to oxaliplatin alone (FIG. 6)
Description: FIG. 6 is a graph depicting the survival fraction of colorectal carcinoma cells when the cells are given a regimen of oxaliplatin as compared to a regimen of CAPE and oxaliplatin. As stated above, CAPE may be combined with other cancer therapies. One such therapy includes the use of oxaliplatin. Oxaliplatin is a chemotherapy drug, and also an antineoplastic agent, that is generally used in late-stage clinical development for colorectal cancer. Oxaliplatin is a platinum chemotherapy drug, similar to cisplatin and carboplatin. At the center of the drug molecule is an atom of platinum. Oxaliplatin is generally a clear liquid that is given through a drip into a vein (intravenous infusion). The infusion usually takes about 2 hours. Oxaliplatin can be given every 2 weeks or every 3 weeks as a course of treatment.

HT-29 xenograft tumors = assay: HT-29 tumor xenografts on the flanks of nude mice, CAPE with or without IR; assay type: in vivo
Description: FIG. 3 is a photograph showing representative animals where CAPE radiosensitizes HT-29 xenograft tumors to IR. HT-29 cells were grown as tumor xenografts on the flanks of nude mice. When the tumors reached approximately 80 mm^3, one group of mice was treated with 0.5 ml of ethanol (EtOH) (0.1%) while the other group was treated with a single injection of CAPE (100 μg/kg). Twenty-four hours later, the tumors on the left flanks were given a single dose of IR (5 Gy). The animals were returned to their cages and tumor measurements were taken every 7 days for the following 4 weeks. The animal on the left was treated with ethanol (EtOH) (the carrier for CAPE), while the animal on the right was treated with 50 mg/kg CAPE. The tumors on the left side of the animal (right side of the picture) was treated with ionizing radiation (IR) (5Gy). Pictures were taken 4 weeks following IR. FIG. 4 is graphical representation of results from all tumors. Control (N=7), CAPE (N=5), IR (N=6) and CAPE +IR (N=4). Error bars represent ±S.E.M. The different number of tumors measured reflects the failure of some of the tumors to grow during the first week prior to treatment. FIG. 5 is a bar graph illustrating the number of days required for a tumor to triple in volume. […] FIG. 4 illustrates that tumors treated with both CAPE and IR were reduced in size by approximately 90% 4 weeks after treatment.

[4] = pretreatment with CAPE for 24 h (5 μg/ml), then IR
[5] = immunoblot with anti-Akt antibody (FIG. 1A)
[6] = increasing doses of CAPE, immunoblot (FIG. 1A)

O=C(/C=C/c1ccc(O)c(O)c1)OCCc1ccccc1 [CAPE, caffeic acid phenethyl ester]
reduction in clonogenic survival by CAPE treatment alone (RKO cells; CAPE 5 μg/ml, no IR): 10-20%
sensitization to IR treatments (RKO cells; pretreatment with CAPE for 12 h or 24 h (FIG. 2A)): significant sensitization
Dose-enhancement ratio (DER) at survival fraction (SF) 0.1 (RKO cells; [4]): 1.81
levels of Akt (anti-Akt antibody) [1, 5]: remain unchanged
levels of Akt phosphorylation (Akt-Pser473) [1, 6]: reduces the levels of Akt phosphorylation
levels of Akt (anti-Akt antibody) [2, 5]: remain unchanged
levels of Akt phosphorylation (Akt-Pser473) [2, 6]: reduces the levels of Akt phosphorylation
rephosphorylation of Akt when serum was added back ([2]; low serum 12 h then 10% serum, in presence of CAPE (FIG. 1B)): did not inhibit rephosphorylation of Akt
Akt phosphorylation with CAPE in low serum ([2]; low serum (0.1%) for 12 h plus CAPE (FIG. 1B)): undetectable levels
reduction in clonogenic survival by CAPE treatment alone (HT-29 cells; CAPE 5 μg/ml, no IR): 10-20%
sensitization to IR treatments (HT-29 cells; pretreatment with CAPE for 12 h or 24 h (FIG. 2B)): significant sensitization
Dose-enhancement ratio (DER) at survival fraction (SF) 0.1 (HT-29 cells; [4]): 1.68
survival fraction of cancerous cells, CAPE plus oxaliplatin [3]: decrease in the survival fraction
number of days required for tumor to triple in volume, CAPE plus IR (HT-29 xenograft tumors; CAPE combined with IR (FIG. 5)): failed to triple in volume
effect on tumor growth, CAPE alone (HT-29 xenograft tumors; single dose (50 mg/kg) CAPE, no IR, HT-29 xenografts in nude mice): minimal effect on tumor growth
reduction in tumor size, CAPE and IR (HT-29 xenograft tumors; single injection of CAPE, IR 5 Gy 24 h later, 4 weeks after treatment (FIG. 4)): approximately 90%
